Source: US4248887A, “Antibacterial compounds, processes for their preparation and compositions containing them” (priority 1978, dated 1981)
In brackets after ≈: the same amount, converted by molar mass. Like-named read-outs stand apart in the source and are kept apart here.

Columns and labels:
Strep. dysgalactiae SPD1 = test: MIC against veterinary bacteria; details: Streptococcus dysgalactiae
M. dispar NCTC 10125 = test: Anti-mycoplasma MIC; format: cell-based; details: M. dispar NCTC 10125; Broth (Friis' broth, microtiter method); read-out: MIC
M. hyorhinis ATCC 23234 = test: Anti-mycoplasma MIC; format: cell-based; details: Mesomycoplasma hyorhinis, ATCC23234; M. hyorhinis ATCC 23234; Agar (serial dilution in Friis' agar); read-out: MIC
M. gallisepticum S6 = test: Anti-mycoplasma MIC; format: cell-based; details: Mycoplasmoides gallisepticum; M. gallisepticum S6; Agar (serial dilution in Friis' agar); read-out: MIC
[1] = tested on: Staph. aureus 152 (pen sensitive); test: MIC against veterinary bacteria; details: Staphylococcus aureus
Strep. pyogenes A 64/848 = test: MIC by serial dilution in nutrient agar (human bacteria); details: Streptococcus pyogenes, A64/848
H. influenzae Wy21 = test: as above; details: Haemophilus influenzae
Bord. bronchiseptica BO9 = test: MIC against veterinary bacteria; details: Bordetella bronchiseptica
M. pulmonis JB = test: Anti-mycoplasma MIC; format: cell-based; details: Mycoplasmopsis pulmonis, read-out: MIC
Past. haemolytica PA5 = test: MIC against veterinary bacteria; details: Mannheimia haemolytica
M. synoviae ATCC 25204 = test: Anti-mycoplasma MIC; format: cell-based; details: Mycoplasmopsis synoviae, ATCC25204; M. synoviae ATCC 25204; Agar (serial dilution in Friis' agar); read-out: MIC
Past. multocida 1633 = test: MIC by serial dilution in nutrient agar (human bacteria); details: Pasteurella multocida
M. bovis ATCC 25025 = test: microbe, parasite or virus in culture; format: cell-based; details: ATCC25025
Strep. pyogenes B 2788 = test: MIC by serial dilution in nutrient agar (human bacteria); details: Streptococcus pyogenes, B2788
Past. multocida PA2 = test: MIC against veterinary bacteria; details: Pasteurella multocida
Staph. aureus Russell = test: MIC by serial dilution in nutrient agar (human bacteria); details: Staphylococcus aureus
[2] = tested on: M. suipneumoniae J2206/183b; test: Anti-mycoplasma MIC; format: cell-based; details: Mesomycoplasma hyopneumoniae
B. subtilis = test: MIC by serial dilution in nutrient agar (human bacteria); details: Bacillus subtilis
M. pneumoniae 427a = test: Anti-mycoplasma MIC; format: cell-based; details: Mycoplasmoides pneumoniae, read-out: MIC
Strep. pyogenes C 2761 = test: MIC by serial dilution in nutrient agar (human bacteria); details: Streptococcus pyogenes, C2761
Strep. agalactiae SPA1 = test: MIC against veterinary bacteria; details: Streptococcus agalactiae
Strep. uberis SPU1 = test: MIC against veterinary bacteria; details: Streptococcus uberis
[3] = tested on: M. alkalescens NCTC 10135; test: Anti-mycoplasma MIC; format: cell-based; details: M. alkalescens NCTC 10135; Agar (serial dilution in Friis' agar); read-out: MIC
M. pneumoniae ATCC 15492 = test: Anti-mycoplasma MIC; format: cell-based; details: Mycoplasmoides pneumoniae, ATCC15492, M. pneumoniae ATCC 15492, read-out: MIC
M. bovis NCTC 10131 = test: microbe, parasite or virus in culture; format: cell-based; details: NCTC10131
M. suipneumoniae Str. 11 = test: Anti-mycoplasma MIC; format: cell-based; details: Mesomycoplasma hyopneumoniae; M. suipneumoniae Str. 11; Broth (Friis' broth, microtiter method); read-out: MIC
[4] = tested on: Staph. aureus B4 (pen resistant); test: MIC against veterinary bacteria; details: Staphylococcus aureus
M. fermentans MWKL4 = test: Anti-mycoplasma MIC; format: cell-based; details: Mycoplasmopsis fermentans, read-out: MIC
Staph. aureus Oxford = test: MIC by serial dilution in nutrient agar (human bacteria); details: Staphylococcus aureus
[5] = tested on: M. arthritidis ATCC 14124; test: Anti-mycoplasma MIC; format: cell-based; details: M. arthritidis ATCC 14124; Agar (serial dilution in Friis' agar); read-out: MIC
Bord. bronchiseptica BO8 = test: MIC against veterinary bacteria; details: Bordetella bronchiseptica
Past. multocida PA1 = test: MIC against veterinary bacteria; details: Pasteurella multocida
H. influenzae Q1 = test: MIC by serial dilution in nutrient agar (human bacteria); details: Haemophilus influenzae
[6] = tested on: M. bovigenitalium ATCC 14173; test: Anti-mycoplasma MIC; format: cell-based; details: M. bovigenitalium ATCC 14173; Agar (serial dilution in Friis' agar); read-out: MIC
[7] = tested on: M. hyosynoviae ATCC 25591; test: Anti-mycoplasma MIC; format: cell-based; details: M. hyosynoviae ATCC 25591; Agar (serial dilution in Friis' agar); read-out: MIC
M. dispar H225 = test: Anti-mycoplasma MIC; format: cell-based; details: M. dispar H225; Broth (Friis' broth, microtiter method); read-out: MIC
N. catarrhalis 1502 = test: MIC by serial dilution in nutrient agar (human bacteria); details: Neisseria
Strep. pneumoniae CN33 = test: as above; details: Streptococcus pneumoniae
[8] = Agar (serial dilution in Friis' agar)
[9] = Broth (Friis' broth, microtiter method)

Compound: C/C(=C\C(=O)OCCCCCCO)CC1OCC(C/C=C/C(C)C(C)O)C(O)C1O (stereo not drawn) [6-Hydroxyhexyl, 6-Hydroxyhexyl Monate C]
- MIC (Strep. dysgalactiae SPD1): 1.25 µg/mL (≈ 2.92 µM)
- MIC (M. dispar NCTC 10125): 0.156 µg/mL (≈ 0.364 µM)
- MIC (M. hyorhinis ATCC 23234): 1.25 µg/mL (≈ 2.92 µM)
- MIC (M. gallisepticum S6): 10 µg/mL (≈ 23.3 µM)
- MIC [1]: 1.25 µg/mL (≈ 2.92 µM)
- MIC (Strep. pyogenes A 64/848): 1 µg/mL (≈ 2.33 µM)
- MIC (H. influenzae Wy21): 0.2 µg/mL (≈ 0.467 µM)
- MIC (Bord. bronchiseptica BO9): 5 µg/mL (≈ 11.7 µM)
- MIC (M. pulmonis JB; [8]): 0.039 µg/mL (≈ 0.091 µM)
- MIC (M. pulmonis JB; [9]): < 0.02 µg/mL
- MIC (Past. haemolytica PA5): 40 µg/mL (≈ 93.3 µM)
- MIC (M. synoviae ATCC 25204): < 0.02 µg/mL
- MIC (Past. multocida 1633): 1 µg/mL (≈ 2.33 µM)
- MIC (M. bovis ATCC 25025): < 0.02 µg/mL
- MIC (Strep. pyogenes B 2788): 5 µg/mL (≈ 11.7 µM)
- MIC (Past. multocida PA2): 2.5 µg/mL (≈ 5.83 µM)
- MIC (Staph. aureus Russell): 1 µg/mL (≈ 2.33 µM)
- MIC ([2]; J2206/183B): 1.25 µg/mL (≈ 2.92 µM)
- MIC (B. subtilis): 0.5 µg/mL (≈ 1.17 µM)
- MIC (M. pneumoniae 427a; [8]): 1.25 µg/mL (≈ 2.92 µM)
- MIC (M. pneumoniae 427a; [9]): 0.625 µg/mL (≈ 1.46 µM)
- MIC (Strep. pyogenes C 2761): 5 µg/mL (≈ 11.7 µM)
- MIC (Strep. agalactiae SPA1): 5 µg/mL (≈ 11.7 µM)
- MIC (Strep. uberis SPU1): 0.312 µg/mL (≈ 0.728 µM)
- MIC [3]: < 0.02 µg/mL
- MIC (M. pneumoniae ATCC 15492; [8]): 1.25 µg/mL (≈ 2.92 µM)
- MIC (M. pneumoniae ATCC 15492; [9]): 0.625 µg/mL (≈ 1.46 µM)
- MIC (M. bovis NCTC 10131): < 0.02 µg/mL
- MIC (M. suipneumoniae Str. 11): 0.625 µg/mL (≈ 1.46 µM)
- MIC [4]: 1.25 µg/mL (≈ 2.92 µM)
- MIC (M. fermentans MWKL4; [8]): 0.078 µg/mL (≈ 0.182 µM)
- MIC (M. fermentans MWKL4; [9]): < 0.02 µg/mL
- MIC (Staph. aureus Oxford): 0.2 µg/mL (≈ 0.467 µM)
- MIC [5]: 5 µg/mL (≈ 11.7 µM)
- MIC (Bord. bronchiseptica BO8): > 80 µg/mL
- MIC (Past. multocida PA1): 2.5 µg/mL (≈ 5.83 µM)
- MIC (H. influenzae Q1): 0.2 µg/mL (≈ 0.467 µM)
- MIC [6]: 0.039 µg/mL (≈ 0.091 µM)
- MIC [7]: 0.078 µg/mL (≈ 0.182 µM)
- MIC (M. dispar H225): 0.156 µg/mL (≈ 0.364 µM)

Compound: C=CCOC(=O)/C=C(\C)CC1OCC(C/C=C/C(C)C(C)O)C(O)C1O (stereo not drawn) [Allyl, Allyl Monate C]
- MIC (Strep. dysgalactiae SPD1): 5 µg/mL (≈ 13.6 µM)
- MIC (M. dispar NCTC 10125): 0.156 µg/mL (≈ 0.423 µM)
- MIC (M. hyorhinis ATCC 23234): 2.5 µg/mL (≈ 6.78 µM)
- MIC (M. gallisepticum S6): > 10 µg/mL
- MIC [1]: 0.625 µg/mL (≈ 1.7 µM)
- MIC (Strep. pyogenes A 64/848): 2.5 µg/mL (≈ 6.78 µM)
- MIC (Bord. bronchiseptica BO9): 40 µg/mL (≈ 109 µM)
- MIC (M. pulmonis JB; [8]): 0.156 µg/mL (≈ 0.423 µM)
- MIC (M. pulmonis JB; [9]): 0.039 µg/mL (≈ 0.106 µM)
- MIC (Past. haemolytica PA5): 20 µg/mL (≈ 54.3 µM)
- MIC (M. synoviae ATCC 25204): 0.039 µg/mL (≈ 0.106 µM)
- MIC (Past. multocida 1633): 2.5 µg/mL (≈ 6.78 µM)
- MIC (M. bovis ATCC 25025): 0.078 µg/mL (≈ 0.212 µM)
- MIC (Strep. pyogenes B 2788): 2.5 µg/mL (≈ 6.78 µM)
- MIC (Past. multocida PA2): 0.312 µg/mL (≈ 0.847 µM)
- MIC (Staph. aureus Russell): 1 µg/mL (≈ 2.71 µM)
- MIC ([2]; M. suipneumoniae J2206/183b, Broth (Friis' broth, microtiter method), read-out: MIC): 1.25 µg/mL (≈ 3.39 µM)
- MIC (B. subtilis): 1 µg/mL (≈ 2.71 µM)
- MIC (M. pneumoniae 427a; [8]): 5 µg/mL (≈ 13.6 µM)
- MIC (M. pneumoniae 427a; [9]): 10 µg/mL (≈ 27.1 µM)
- MIC (Strep. pyogenes C 2761): 10 µg/mL (≈ 27.1 µM)
- MIC (Strep. agalactiae SPA1): 5 µg/mL (≈ 13.6 µM)
- MIC (Strep. uberis SPU1): 1.25 µg/mL (≈ 3.39 µM)
- MIC [3]: 0.078 µg/mL (≈ 0.212 µM)
- MIC (M. pneumoniae ATCC 15492; [8]): 10 µg/mL (≈ 27.1 µM)
- MIC (M. pneumoniae ATCC 15492; [9]): 10 µg/mL (≈ 27.1 µM)
- MIC (M. bovis NCTC 10131): 0.078 µg/mL (≈ 0.212 µM)
- MIC (M. suipneumoniae Str. 11): 0.312 µg/mL (≈ 0.847 µM)
- MIC [4]: 0.625 µg/mL (≈ 1.7 µM)
- MIC (M. fermentans MWKL4; [8]): 0.156 µg/mL (≈ 0.423 µM)
- MIC (M. fermentans MWKL4; [9]): 0.039 µg/mL (≈ 0.106 µM)
- MIC (Staph. aureus Oxford): 0.1 µg/mL (≈ 0.271 µM)
- MIC (N. catarrhalis 1502): 0.05 µg/mL (≈ 0.136 µM)
- MIC [5]: > 10 µg/mL
- MIC (Bord. bronchiseptica BO8): > 80 µg/mL
- MIC (Past. multocida PA1): 2.5 µg/mL (≈ 6.78 µM)
- MIC (H. influenzae Q1): 0.5 µg/mL (≈ 1.36 µM)
- MIC [6]: 0.078 µg/mL (≈ 0.212 µM)
- MIC [7]: 1.25 µg/mL (≈ 3.39 µM)
- MIC (M. dispar H225): 0.078 µg/mL (≈ 0.212 µM)
- MIC (Strep. pneumoniae CN33): 2.5 µg/mL (≈ 6.78 µM)
